Article PMC3618206, “High-throughput fluorescent-based NKCC functional assay in adherent epithelial cells” (BMC Cell Biology, 2013)

Tested on: T1, c-NKCC2 (chimeric NKCC1-NKCC2 construct)
T1 construct: gene SLC12A2; single polypeptide chimera: NKCC1 backbone with whole NKCC1 transmembrane domain, C-terminal apical sorting domain exchanged for that of mammalian NKCC2 isoform B; N-terminal HA tag; stably expressed in LLC-PK1 cells; NKCC2 part possibly rabbit; with Solute carrier family 12 member 1 (isoform B, C-terminal apical sorting domain)
Assay: FluxOR Tl+ influx fluorescence, initial rate, FlexStation, stably transfected LLC-PK1 cells
Format: cell-based
Settings: external Cl- 3-135 mM (gluconate replacement); co-substrates Na+ and Tl+ (2 mM Tl2SO4), K+-free, pH 7.4; single-site fit; Cl- starved cells

## Cl [Cl^-]
  Km: 23.4 mM
